{"source": "patent US20130030007A1", "about": "“Obesity Small Molecules” (AKRON MOLECULES GMBH, priority 2010, published 2013)", "key": {"hedgehog pathway": {"tested_on": "hedgehog pathway", "format": "cell-based"}, "[1]": {"conditions": "administered orally; cited from earlier work"}, "[2]": {"conditions": "human, in vivo, po; cited from earlier work"}, "[3]": {"conditions": "cited from earlier work"}, "C57BL6/J DIO mice [4]": {"tested_on": "C57BL6/J DIO mice", "assay": "Body weight of diet-induced obese mice under daily compound administration", "format": "in vivo, mouse", "conditions": "40 mg/kg/d oral gavage, stabilized over the course of the experiment", "description": "FIG. 9. Loss of weight in Vandetanib administered mice. C57BL6/J DIO mice were administered 40/mg/kg/day by oral gavage. The mice were weighed daily and the values were expressed as a percentage of the starting weight (day 1). […] Error bars represent standard error of the mean.\nFIG. 13. Loss of weight in dasatininb administered mice. C57BL6/J DIO mice were administered 5/mg/kg/day for 27 days. The mice were weighed daily and the values were expressed as a percentage of the starting weight (day 1). […] Error bars represent standard error of the mean.\nGeneral preferred layout: The mice were divided into cages of 2-4 mice per cage and allowed to acclimatise to the new housing conditions for at least 2 weeks. The mice were weighed every week to monitor their weight and ensure that the mice are either gaining weight or stabilized prior to initiation of the experiment. Mice were randomly assigned to weight-matched groups for compound administration. Compound dosage and routes of administration were determined based on published literature and pharmacokinetic studies. […]\nThe dose of Vandetanib chosen for this study was 40 mg/kg/d. This has been determined to be an effective dose for the inhibition of the target VEGFR in various mouse cancer models. […] The mice were weighed on a daily basis during the experiment and monitored for overt signs of toxicity or stress. […]"}, "C57BL6/J DIO mice [5]": {"tested_on": "C57BL6/J DIO mice", "conditions": "DIO mice, 40 mg/kg/d oral gavage, course of the study"}, "[6]": {"tested_on": "human Adenoid Cycstic Carcinoma", "conditions": "50 mg/kg/d oral gavage for 4 weeks; cited from earlier work"}, "renal cell carcinoma": {"tested_on": "renal cell carcinoma", "conditions": "50 mg/kg for 21 days; cited from earlier work"}, "tumour growth": {"tested_on": "tumour growth", "conditions": "up to 100 mg/kg in mice for 35 days; cited from earlier work"}}, "data": [{"smiles": "CNC1CCC(N(Cc2cccc(-c3ccncc3)c2)C(=O)c2sc3ccccc3c2Cl)CC1", "note": "(stereo not shown) [SAG]", "values": [{"measurement": "hedgehog pathway activation (target genes Gli1 and Ptch1)", "setting": "hedgehog pathway", "value": "activation"}]}, {"smiles": "CNC(=O)c1cc(Oc2ccc(NC(=O)Nc3ccc(Cl)c(C(F)(F)F)c3)cc2)ccn1", "note": "[Sorafenib]", "values": [{"measurement": "half life", "setting": "[1]", "value": "25 to 48", "unit": "h"}, {"measurement": "maximum tolerated dose in humans", "setting": "[2]", "value": 400, "unit": "mg"}]}, {"smiles": "C=CCNC1=C2C[C@@H](C)C[C@H](OC)[C@H](O)[C@@H](C)/C=C(\\C)[C@H](OC(N)=O)[C@@H](OC)/C=C\\C=C(/C)C(=O)NC(=CC1=O)C2=O", "note": "[Tanespimycin, 17-allylamino-demethoxygeldamycin]", "values": [{"measurement": "water solubility", "setting": "[3]", "value": "water insoluble"}]}, {"smiles": "COc1cc2c(Nc3ccc(Br)cc3F)ncnc2cc1OCC1CCN(C)CC1", "note": "[Vandetanib]", "values": [{"measurement": "reduction of body weight", "setting": "C57BL6/J DIO mice [4]", "value": "~10", "unit": "%"}, {"measurement": "tolerability / adverse side effects", "setting": "C57BL6/J DIO mice [5]", "value": "well tolerated during the course of the study and no adverse side effects were observed"}, {"measurement": "tolerability", "setting": "[6]", "value": "well tolerated by the mice and no adverse side effects or loss in body weight was observed"}, {"measurement": "tolerability", "setting": "renal cell carcinoma", "value": "well tolerated with no drug related changes in weight or behaviour observed"}, {"measurement": "effect on clinical condition", "setting": "tumour growth", "value": "no obvious effect on clinical condition"}, {"measurement": "maximum tolerated dose in humans", "setting": "[2]", "value": 300, "unit": "mg"}]}]}
